Measured values: ChEMBL document CHEMBL6109153, “Development of Membrane-Targeting Osthole Derivatives Containing Pyridinium Quaternary Ammonium Moieties with Potent Anti-Methicillin-Resistant Staphylococcus aureus Properties” (J Med Chem, 2025)
Active and inactive are the calls of the source. No cut-off for these calls is given here.

Assays:
Staphylococcus aureus [1] = assay: Antibacterial activity against methicillin-resistant Staphylococcus aureus M11 upto 128 ug/ml in presence of phosphatidylethanolamine incubated for 16 to 18 hrs; format: functional, organism-based; details: dose <= 128.0 µg/ml, time 16-18 hrs
Staphylococcus aureus [2] = assay: Antibacterial activity against Staphylococcus aureus ATCC 29213 incubated for 16 to 20 hrs by broth microdilution method; format: functional; details: time 16-20 hrs
[3] = Toxicity in BALB/c mouse model of Sepsis infected with methicillin-resistant Staphylococcus aureus M11 assessed as lesions in kidney at 4 to 8 mg/kg measured after 24 hrs by H and E staining based analysis; format: organism-based; details: in vivo, dose 4-8 mg/kg
[4] = Toxicity in BALB/c mouse model of Sepsis infected with methicillin-resistant Staphylococcus aureus M11 assessed as lesions in spleen at 4 to 8 mg/kg measured after 24 hrs by H and E staining based analysis; format: organism-based; details: in vivo, dose 4-8 mg/kg
[5] = Toxicity in BALB/c mouse assessed as maximum safe dose administered intraperitoneally measured for 7 days; details: in vivo, route ip, time 7 day
Staphylococcus aureus [6] = assay: Antibacterial activity against methicillin-resistant Staphylococcus aureus M11 incubated for 16 to 20 hrs by broth microdilution method; format: functional; details: time 16-20 hrs
Escherichia coli = assay: Antibacterial activity against Escherichia coli ATCC 25922 incubated for 16 to 20 hrs by broth microdilution method; format: functional; details: time 16-20 hrs
Staphylococcus aureus [7] = assay: Disruption of cell membrane in methicillin-resistant Staphylococcus aureus M11 assessed as cell membrane rupture at 4 ug/ml incubated for 4 hrs by SEM analysis; format: functional, organism-based; details: dose 4.0 µg/ml
[8] = Toxicity in BALB/c mouse model of Sepsis infected with methicillin-resistant Staphylococcus aureus M11 assessed as pathological change in liver at 4 to 8 mg/kg measured after 24 hrs by H and E staining based analysis; format: organism-based; details: in vivo, dose 4-8 mg/kg
[9] = Toxicity in BALB/c mouse assessed as normal appetite at 5 to 40 mg/kg, ip measured for 7 days; format: organism-based; details: in vivo, 168 h, dose 5-40 mg/kg, time 7 day
[10] = Toxicity in BALB/c mouse model of Sepsis infected with methicillin-resistant Staphylococcus aureus M11 assessed as pathological change in kidney at 4 to 8 mg/kg measured after 24 hrs by H and E staining based analysis; format: organism-based; details: in vivo, dose 4-8 mg/kg
Staphylococcus aureus [11] = assay: Disruption of cell membrane in methicillin-resistant Staphylococcus aureus M11 assessed as fold increase in DNA leakage at 4 ug/ml incubated for 4 hrs by micro-spectrophotometric analysis relative to control; format: functional; details: dose 4 µg/ml
Staphylococcus aureus [12] = assay: Antibacterial activity against methicillin-resistant Staphylococcus aureus M11 infected in BALB/c mouse model of Sepsis assessed as reduction in bacterial load in skin tissues at 8 mg/kg measured after 24 hrs; format: functional
Staphylococcus aureus [13] = assay: Antibacterial activity against methicillin-resistant Staphylococcus aureus M11 infected in BALB/c mouse model of Sepsis assessed as smooth in inner epidermis at 8 mg/kg measured after 24 hrs; format: functional, organism-based
Staphylococcus aureus [14] = assay: Antibacterial activity against methicillin-resistant Staphylococcus aureus M11 infected in BALB/c mouse model of Sepsis assessed as reduction in TNF-alpha level measured after 24 hrs; format: functional, organism-based; details: dose 4-8 mg/kg
[15] = Toxicity in BALB/c mouse model of Sepsis infected with methicillin-resistant Staphylococcus aureus M11 assessed as pathological change in spleen at 4 to 8 mg/kg measured after 24 hrs by H and E staining based analysis; format: organism-based; details: in vivo, dose 4-8 mg/kg
Staphylococcus aureus [16] = assay: Antibacterial activity against methicillin-resistant Staphylococcus aureus M11 infected in BALB/c mouse model of Sepsis assessed as reduction in abscess size on back at 4 mg/kg measured after 24 hrs; format: functional, organism-based
Staphylococcus aureus [17] = assay: Antibacterial activity against methicillin-resistant Staphylococcus aureus M11 infected in BALB/c mouse model of Sepsis measured after 24 hrs; format: functional, organism-based; details: dose 4-8 mg/kg
Staphylococcus aureus [18] = assay: Disruption of cell membrane in methicillin-resistant Staphylococcus aureus M11 assessed as shrinkage in cell membrane at 4 ug/ml incubated for 4 hrs by SEM analysis; format: functional, organism-based; details: dose 4.0 µg/ml
Staphylococcus aureus [19] = assay: Antibacterial activity against methicillin-resistant Staphylococcus aureus M11 assessed as fold increase in MIC up to 128 ug/ml in presence of 128 ug/ml peptidoglycan incubated for 16 to 18 hrs relative to control; format: functional; details: dose <= 128 µg/ml; time 16-18 hrs
Staphylococcus aureus [20] = assay: Depolarization of cell membrane in methicillin-resistant Staphylococcus aureus M11 assessed as increase in fluorescence intensity incubated for 30 mins by DiSC3(5) dye based analysis; format: functional, organism-based
Staphylococcus aureus [21] = assay: Antibacterial activity against methicillin-resistant Staphylococcus aureus M16 incubated for 16 to 20 hrs by broth microdilution method; format: functional; details: time 16-20 hrs
Staphylococcus aureus [22] = assay: Induction of resistance development in Staphylococcus aureus ATCC 29213 at 0.5 times MIC measured after 20 passages by broth microdilution method; format: functional, organism-based
Staphylococcus aureus [23] = assay: Antibacterial activity against methicillin-resistant Staphylococcus aureus M14 incubated for 16 to 20 hrs by broth microdilution method; format: functional; details: time 16-20 hrs
Staphylococcus aureus [24] = assay: Induction of bacterial eradication in methicillin-resistant Staphylococcus aureus M11 at 8 times MIC incubated for 4 hrs by time-kill assay; format: functional, organism-based
Staphylococcus aureus [25] = assay: Antibacterial activity against methicillin-resistant Staphylococcus aureus M17 incubated for 16 to 20 hrs by broth microdilution method; format: functional; details: time 16-20 hrs
Staphylococcus aureus [26] = assay: Antibacterial activity against methicillin-resistant Staphylococcus aureus M11 infected in BALB/c mouse model of Sepsis assessed as reduction in bacterial count in skin tissues at 8 mg/kg measured after 24 hrs relative to control; format: functional; design: scale not given: the % may be the effect or the level left
[27] = Toxicity in BALB/c mouse model of Sepsis infected with methicillin-resistant Staphylococcus aureus M11 assessed as pathological change in heart at 4 to 8 mg/kg measured after 24 hrs by H and E staining based analysis; format: organism-based; details: in vivo, dose 4-8 mg/kg
Staphylococcus aureus [28] = assay: Antibacterial activity against methicillin-resistant Staphylococcus aureus M20 incubated for 16 to 20 hrs by broth microdilution method; format: functional; details: time 16-20 hrs
Staphylococcus aureus [29] = assay: Antibacterial activity against methicillin-resistant Staphylococcus aureus M13 incubated for 16 to 20 hrs by broth microdilution method; format: functional; details: time 16-20 hrs
Staphylococcus aureus [30] = assay: Antibacterial activity against methicillin-resistant Staphylococcus aureus M11 up to 128 ug/ml in presence of peptidoglycan incubated for 16 to 18 hrs; format: functional, organism-based; details: dose <= 128.0 µg/ml, time 16-18 hrs
[31] = Toxicity in BALB/c mouse assessed as normal behavior at 5 to 40 mg/kg, ip measured for 7 days; format: organism-based; details: in vivo, 168 h, dose 5-40 mg/kg, time 7 day
Staphylococcus aureus [32] = assay: Antibacterial activity against methicillin-resistant Staphylococcus aureus M11 up to 128 ug/ml in presence of 32 ug/ml cardiolipin incubated for 16 to 18 hrs; format: functional; details: dose <= 128 µg/ml, time 16-18 hrs
Staphylococcus aureus [33] = assay: Antibacterial activity against methicillin-resistant Staphylococcus aureus M11 infected in BALB/c mouse model of Sepsis assessed as reduction in inflammatory cell infiltration in skin tissues at 4 to 8 mg/kg measured after 24 hrs by H and E staining based analysis; format: functional, organism-based; details: dose 4-8 mg/kg
Staphylococcus aureus [34] = assay: Antibacterial activity against methicillin-resistant Staphylococcus aureus M11 up to 128 ug/ml in presence of cardiolipin incubated for 16 to 18 hrs; format: functional, organism-based; details: dose <= 128.0 µg/ml, time 16-18 hrs
[35] = Toxicity in BALB/c mouse model of Sepsis infected with methicillin-resistant Staphylococcus aureus M11 assessed as lesions in heart at 4 to 8 mg/kg measured after 24 hrs by H and E staining based analysis; format: organism-based; details: in vivo, dose 4-8 mg/kg
Staphylococcus aureus [36] = assay: Antibacterial activity against methicillin-resistant Staphylococcus aureus M11 infected in BALB/c mouse model of Sepsis assessed as reduction in redness in inner epidermal abscesses at 4 mg/kg measured after 24 hrs; format: functional, organism-based

| SMILES | Activity (Staphylococcus aureus [1]) | MIC (Staphylococcus aureus [2]) [µg/mL] | Activity [3] | Activity [4] | MTD at 168 h [5] [mg/kg] | MIC (Staphylococcus aureus [6]) [µg/mL] | MIC (Escherichia coli) [µg/mL] | Activity (Staphylococcus aureus [7]) | Activity [8] | Activity [9] | Activity [10] | fold change (FC) (Staphylococcus aureus [11]) | Activity (Staphylococcus aureus [12]) [log10CFU/g] | Activity (Staphylococcus aureus [13]) | Activity (Staphylococcus aureus [14]) | Activity [15] | Activity (Staphylococcus aureus [16]) | Activity (Staphylococcus aureus [17]) | Activity (Staphylococcus aureus [18]) | fold change (FC) (Staphylococcus aureus [19]) | further results |
| --- | --- | --- | --- | --- | --- | --- | --- | --- | --- | --- | --- | --- | --- | --- | --- | --- | --- | --- | --- | --- | --- |
| CCCCCNC(=O)C[n+]1ccc(SCCCCCOc2ccc3ccc(=O)oc3c2CC=C(C)C)cc1.[Br-] | Active; Compound Showed Only Minor Or No Change In Mic | 1 | Non-toxic | Non-toxic | 10 | 0.5 | > 128 | Active | Non-toxic | Non-toxic | Non-toxic | ~2 | 3.828 | Active | Dose-dependent-effect; Compound Has Slightly Greater Efficacy Than Vancomycin | Non-toxic | Active | Dose-dependent-effect | Active | 32 | Activity (Staphylococcus aureus [20]): Dose-dependent-effect; Activity Was Observed Higher Than Melittin; MIC (Staphylococcus aureus [21]): 0.5 µg/mL; Activity (Staphylococcus aureus [22]): inactive; MIC (Staphylococcus aureus [23]): 0.5 µg/mL; Activity (Staphylococcus aureus [24]): Active; MIC (Staphylococcus aureus [25]): 0.5 µg/mL; Activity (Staphylococcus aureus [26]): 99.985%; Activity [27]: Non-toxic; MIC (Staphylococcus aureus [28]): 0.5 µg/mL; MIC (Staphylococcus aureus [29]): 1 µg/mL; Activity (Staphylococcus aureus [30]): Active; Compound Showed Only Minor Or No Change In Mic; Activity [31]: Non-toxic; MIC (Staphylococcus aureus [32]): 1 µg/mL; Activity (Staphylococcus aureus [33]): Active; Activity (Staphylococcus aureus [34]): Active; Compound Showed Only Minor Or No Change In Mic; Activity [35]: Non-toxic; Activity (Staphylococcus aureus [36]): Active |
| CC(C)=CCc1c(OCCCCSc2cc[n+](CC(=O)N(CC(C)C)CC(C)C)cc2)ccc2ccc(=O)oc12.[Br-] | Active; Compound Showed Only Minor Or No Change In Mic | 0.5 | Non-toxic | Non-toxic | 30 | 0.5 | > 128 | Active | Non-toxic | Non-toxic | Non-toxic | ~2 | 4.252 | Active | Dose-dependent-effect; Compound Has Slightly Greater Efficacy Than Vancomycin | Non-toxic | Active | Dose-dependent-effect | Active | 32 | Activity (Staphylococcus aureus [20]): Dose-dependent-effect; Activity Was Observed Higher Than Melittin; MIC (Staphylococcus aureus [21]): 0.5 µg/mL; Activity (Staphylococcus aureus [22]): inactive; MIC (Staphylococcus aureus [23]): 0.5 µg/mL; Activity (Staphylococcus aureus [24]): Active; MIC (Staphylococcus aureus [25]): 0.5 µg/mL; Activity (Staphylococcus aureus [26]): 99.994%; Activity [27]: Non-toxic; MIC (Staphylococcus aureus [28]): 0.5 µg/mL; MIC (Staphylococcus aureus [29]): 1 µg/mL; Activity (Staphylococcus aureus [30]): Active; Compound Showed Only Minor Or No Change In Mic; Activity [31]: Non-toxic; MIC (Staphylococcus aureus [32]): 1 µg/mL; Activity (Staphylococcus aureus [33]): Active; Activity (Staphylococcus aureus [34]): Active; Compound Showed Only Minor Or No Change In Mic; Activity [35]: Non-toxic; Activity (Staphylococcus aureus [36]): Active |
